Data taken from patent US11773129B2, “Methods of preventing or treating atherosclerosis with inhibitors of specific isoenzymes of human neuraminidase” (THE GOVERNORS OF THE UNIVERSITY OF ALBERTA, priority 2017, dated 2023).
Several values for one entry are separate records, joined by “and”; a condition that tells them apart may be missing. Equal entries are not always repeated. Entries after “also recorded” stand apart in the source; their conditions may differ. Where two headings read alike, the source gives them in different places.

Columns and labels:
[1] = target: T1, NEU3 (Homo sapiens, UniProt Q9UQ49); assay: Inhibition of GM3 cleavage, NEU3
T1 sequence (Q9UQ49 1-428): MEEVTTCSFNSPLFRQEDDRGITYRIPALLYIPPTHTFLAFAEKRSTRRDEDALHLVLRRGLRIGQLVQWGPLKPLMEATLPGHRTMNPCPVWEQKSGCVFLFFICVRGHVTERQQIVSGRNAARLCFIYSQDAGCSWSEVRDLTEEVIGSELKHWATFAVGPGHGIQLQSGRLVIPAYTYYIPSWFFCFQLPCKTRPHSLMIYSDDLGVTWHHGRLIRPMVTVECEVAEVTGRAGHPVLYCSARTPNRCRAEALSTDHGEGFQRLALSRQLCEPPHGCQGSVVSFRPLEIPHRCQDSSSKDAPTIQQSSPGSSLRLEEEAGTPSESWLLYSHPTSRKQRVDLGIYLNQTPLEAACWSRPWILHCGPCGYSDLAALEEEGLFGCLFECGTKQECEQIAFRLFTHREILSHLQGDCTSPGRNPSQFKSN

[2] = system: atherosclerotic lesions in ApoE KO mice; assay: Atherosclerotic lesion size in aortic root of ApoE KO mice (Red Oil O); conditions: ApoE KO female mice, ip, 4 weeks
[3] = 4 weeks ip treatment
[4] = target: T1, NEU3; assay: IC50 inhibition assay using 4MU-NANA as the substrate, NEU3; assay type: biochemical; parameters: MBP (N); made in house; host or cells: E. coli
[5] = target: T2, NEU1 (Homo sapiens, UniProt Q99519); assay: IC50 inhibition assay using 4MU-NANA as the substrate, NEU1; assay type: biochemical
T2 construct: made in house; host or cells: HEK293 (lentiviral transduction), crude lysate
Experimental: Two weeks after transduction cells were harvested and a crude lysate showing ˜200 nmol/h mg of sialidase activity used in experiments.
Assays were performed with duplicates for each point and IC50 was obtained by plotting the data with Graphpad™ Prism 5.0.

[6] = target: T1, NEU3; assay: Ki determination (4MU-NANA), NEU3
[7] = target: T3, NEU4 (Homo sapiens, UniProt Q8WWR8); assay: IC50 inhibition assay using 4MU-NANA as the substrate, NEU4; assay type: biochemical; parameters: GST; made in house; host or cells: E. coli; conditions: 4MU-NANA as the substrate; read-out: IC50 NEU4
T3 sequence (Q8WWR8 1-484): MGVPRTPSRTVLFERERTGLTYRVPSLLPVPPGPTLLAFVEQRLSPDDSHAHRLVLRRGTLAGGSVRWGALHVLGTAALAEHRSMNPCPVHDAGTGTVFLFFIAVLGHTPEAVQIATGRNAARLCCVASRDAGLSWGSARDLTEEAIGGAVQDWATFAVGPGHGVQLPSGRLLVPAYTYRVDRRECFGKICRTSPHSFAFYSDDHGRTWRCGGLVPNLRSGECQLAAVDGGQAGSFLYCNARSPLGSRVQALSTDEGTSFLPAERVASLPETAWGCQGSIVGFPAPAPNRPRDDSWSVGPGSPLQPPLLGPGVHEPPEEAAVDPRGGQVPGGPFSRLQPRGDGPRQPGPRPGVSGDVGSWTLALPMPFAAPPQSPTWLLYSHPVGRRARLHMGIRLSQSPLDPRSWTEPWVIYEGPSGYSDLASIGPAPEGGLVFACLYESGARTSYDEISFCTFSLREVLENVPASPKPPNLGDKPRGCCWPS

[8] = system: NEU1, NEU2, NEU3, NEU4; assay: Isoenzyme specificity/selectivity from 4MU-NANA IC50 across the four human neuraminidases; assay type: biochemical; conditions: for Target: isoenzyme(s) the compound is specific for, dual (bispecific) when ratio of IC50 is about 3 or less
[9] = system: NEU1, NEU2, NEU3, NEU4; assay: as above; assay type: biochemical; conditions: 4MU-NANA IC50 compared between isoenzymes or with DANA
[10] = 4MU-NANA as the substrate, read-out: IC50 NEU3
[11] = 4MU-NANA as the substrate, read-out: IC50 NEU1

IC50 [4, 10]	IC50 [5, 11] [µM]	IC50 [7] [µM]	Target [8]	Structure (SMILES)	other results
31 ± 6 µM	29 ± 5	210 ± 80	NEU1/ NEU3	CC(=O)N[C@H]1[C@H]([C@H](O)[C@H](O)CNC(=O)c2ccc(N)cc2)OC(C(=O)O)=C[C@@H]1O [compound 59, 5-Acetamido-9-(4-amino)benzamido-2,6-anhydro-3,5-dideoxy-b-glycero-D-galacto-non-2-enonic acid]	
2.9 ± 0.2 µM	190 ± 70	3.7 ± 0.4	NEU3/ NEU4	CC(=O)N[C@@H]1C(O)C=C(C(=O)O)OC1C(O)C(O)Cn1cc(-c2ccc(NC(=O)c3ccccc3)cc2)nn1 (stereo partly drawn) [compound 27]	
8.2 ± 1.3 µM	51 ± 7	3.9 ± 0.4	NEU3/ NEU4	CC(=O)N[C@H]1[C@H]([C@H](O)[C@H](O)Cn2cc(-c3ccc(C)cc3)nn2)OC(C(=O)O)=C[C@@H]1O [7d]	
15 ± 2 µM	8.4 ± 0.5	8.4 ± 0.4	NEU1/ NEU4	CCCC(=O)N[C@@H]1C(O)C=C(C(=O)O)OC1C(O)C(O)CO (stereo partly drawn) [compound 30, 5-Butyramido-2,6-anhydro-3,5-dideoxy-n-glycero-n-galacto-non-2-enonic acid]	
> 500 µM	> 500	> 500		CC(=O)N[C@H]1[C@H]([C@H](O)[C@H](O)Cn2cc(-c3ccc(C(=O)O)cc3)nn2)OC(C(=O)O)=C[C@@H]1N [compound 15]	relative potency [9]: decreased potency
240 ± 40 µM	> 500	100 ± 20	NEU2	O=C(Cn1cc(-c2ccc(F)cc2)nn1)N[C@@H]1C(O)C=C(C(=O)O)OC1C(O)C(O)CO (stereo partly drawn) [compound 45]	
> 500 µM	1.5 ± 0.2	> 500	NEU1	CCCCC(=O)NCC(O)C(O)C1OC(C(=O)O)=CC(O)[C@H]1NC(=O)CCCC (stereo partly drawn) [compound 57, 5-Pentanamido-9-pentanamido-2,6-anhydro-3,5-dideoxy-D-glycero-D-galacto-non-2-enonic acid]	
20 ± 6 µM	> 500	400 ± 70	NEU3	CC(=O)N[C@H]1[C@H]([C@H](O)[C@H](O)Cn2cc(-c3ccc(C(=O)O)cc3)nn2)OC(C(=O)O)=C[C@@H]1N=[N+]=[N-] [compound 13]	relative potency [9]: decreased potency; Selectivity ([8]; from 4MU-NANA IC50, for the isoenzyme(s) in column Target): 20
0.61 ± 0.1 µM	> 500	24 ± 2	NEU3	CC(=O)N[C@@H]1C(NC(=N)N)C=C(C(=O)O)OC1C(O)C(O)Cn1cc(-c2ccc(C(=O)O)cc2)nn1 (stereo partly drawn) [8a]	
34 ± 5 µM	2.5 ± 0.3	150 ± 10	NEU1	CC(=O)N[C@@H]1C(O)C=C(C(=O)O)OC1C(O)C(O)CNC(=O)c1ccccc1 (stereo partly drawn) [compound 56, 5-Acetamido-9-benzamido-2,6-anhydro-3,5-dideoxy-D-glycero-D-galacto-non-2-enonic acid]	
> 500 µM	> 500	87 ± 14	NEU2	COc1ccc(-c2cn(CC(=O)N[C@@H]3C(O)C=C(C(=O)O)OC3C(O)C(O)CO)nn2)cc1 (stereo partly drawn) [compound 44]	
> 500 µM	5.3 ± 0.8	71 ± 17	NEU1	CC(C)C(=O)N[C@H]1[C@H]([C@H](O)[C@H](O)CO)OC(C(=O)O)=C[C@@H]1O [compound 34, 5-isobutyramido-2,6-anhydro-3,5-dideoxy-D-glycero-D-galacto-non-2-enonic acid]	
> 500 µM	> 500	400 ± 160	NEU2	O=C(Cn1cc(-c2ccc(C(=O)O)cc2)nn1)N[C@@H]1C(O)C=C(C(=O)O)OC1C(O)C(O)CO (stereo partly drawn) [compound 43]	
31 ± 5 µM	240 ± 70	46 ± 13	NEU3/ NEU4	CC(=O)Nc1ccc(C(=O)NCCCCC(=O)NC[C@@H](O)[C@@H](O)[C@@H]2OC(C(=O)O)=C[C@H](O)[C@H]2NC(C)=O)cc1 [compound 62, 5-Acetamido-9-(5-(4-acetamidobenzamido))pentanamido-2,6-anhydro-3,5-dideoxy-d-glycero-d-galacto-non-2-enonic acid]	
54 ± 6 µM	3.2 ± 0.3	150 ± 50	NEU1	CC(=O)N[C@@H]1C(O)C=C(C(=O)O)OC1C(O)C(O)CNC(=O)CCC(C)C (stereo partly drawn) [compound 55, 5-Acetamido-9-(4-methylpentanamido)-2,6-anhydro-3,5-dideoxy-D-glycero-D-galacto-non-2-enonic acid]	

Structure (SMILES)	IC50 [4, 10]	IC50 [5, 11] [µM]	IC50 [7] [µM]	Target [8]	other results
CC(=O)N[C@@H]1C(NC(=N)N)C=C(C(=O)O)OC1C(O)C(O)Cn1cc(-c2ccc(-c3ccccc3)cc2)nn1 (stereo partly drawn) [8b]	< 1 µM and 0.58 µM	> 500			IC50 [1]: 3.8 µM; size of atherosclerotic lesions / fatty streaks in the aortic root [2]: Reduced size of fatty streaks; also recorded: significantly reduced the size of atherosclerotic lesions; changes associated with toxicity (bleeding, leukocyte infiltration, cytoplasmic vacuolisation) [3]: did not see specific changes known to be associated with toxicity; changes in the mice weight or behaviour [3]: did not result in any changes in the mice weight or behaviour; IC50 ([4]; target isoenzyme NEU3, 4MU-NANA substrate, read-out: IC50 [μM] NEU3): 0.6 µM; Ki ([6]; Ki NEU3, 4MU-NANA): 0.28 ± 0.04 µM; Ki ([6]; NEU3 Ki [μM], 4MU-NANA substrate): 0.36 ± 0.04 µM
CCCCC(=O)N[C@@H]1C(O)C=C(C(=O)O)OC1C(O)C(O)CO (stereo partly drawn) [compound 31]		0.99 ± 0.07	110 ± 20	NEU1	size of atherosclerotic lesions / fatty streaks in the aortic root [2]: Reduced size of fatty streaks; also recorded: significantly reduced the size of atherosclerotic lesions; changes associated with toxicity (bleeding, leukocyte infiltration, cytoplasmic vacuolisation) [3]: did not see specific changes known to be associated with toxicity; changes in the mice weight or behaviour [3]: did not result in any changes in the mice weight or behaviour; IC50 ([5]; target isoenzyme NEU1, 4MU-NANA substrate, read-out: IC50 [μM] NEU1): 0.99 µM
